From patent US20140171417A1, “TRICYCLIC COMPOUNDS” (NOVARTIS AG, priority 2012, published 2014)

These molecules were tested against T1, CFTR (Homo sapiens, UniProt P13569) (assay: IonWorks Quattro assay (CFTR Inhibitor Assay), whole-cell planar patch clamp). Conditions: inward current (−100 mV); CHO cells stably expressing WT-CFTR; CFTR activated by 10 μM forskolin; test compound incubated 10 min.
T1 construct: expressed in transfected cells
T1 sequence (P13569 whole entry): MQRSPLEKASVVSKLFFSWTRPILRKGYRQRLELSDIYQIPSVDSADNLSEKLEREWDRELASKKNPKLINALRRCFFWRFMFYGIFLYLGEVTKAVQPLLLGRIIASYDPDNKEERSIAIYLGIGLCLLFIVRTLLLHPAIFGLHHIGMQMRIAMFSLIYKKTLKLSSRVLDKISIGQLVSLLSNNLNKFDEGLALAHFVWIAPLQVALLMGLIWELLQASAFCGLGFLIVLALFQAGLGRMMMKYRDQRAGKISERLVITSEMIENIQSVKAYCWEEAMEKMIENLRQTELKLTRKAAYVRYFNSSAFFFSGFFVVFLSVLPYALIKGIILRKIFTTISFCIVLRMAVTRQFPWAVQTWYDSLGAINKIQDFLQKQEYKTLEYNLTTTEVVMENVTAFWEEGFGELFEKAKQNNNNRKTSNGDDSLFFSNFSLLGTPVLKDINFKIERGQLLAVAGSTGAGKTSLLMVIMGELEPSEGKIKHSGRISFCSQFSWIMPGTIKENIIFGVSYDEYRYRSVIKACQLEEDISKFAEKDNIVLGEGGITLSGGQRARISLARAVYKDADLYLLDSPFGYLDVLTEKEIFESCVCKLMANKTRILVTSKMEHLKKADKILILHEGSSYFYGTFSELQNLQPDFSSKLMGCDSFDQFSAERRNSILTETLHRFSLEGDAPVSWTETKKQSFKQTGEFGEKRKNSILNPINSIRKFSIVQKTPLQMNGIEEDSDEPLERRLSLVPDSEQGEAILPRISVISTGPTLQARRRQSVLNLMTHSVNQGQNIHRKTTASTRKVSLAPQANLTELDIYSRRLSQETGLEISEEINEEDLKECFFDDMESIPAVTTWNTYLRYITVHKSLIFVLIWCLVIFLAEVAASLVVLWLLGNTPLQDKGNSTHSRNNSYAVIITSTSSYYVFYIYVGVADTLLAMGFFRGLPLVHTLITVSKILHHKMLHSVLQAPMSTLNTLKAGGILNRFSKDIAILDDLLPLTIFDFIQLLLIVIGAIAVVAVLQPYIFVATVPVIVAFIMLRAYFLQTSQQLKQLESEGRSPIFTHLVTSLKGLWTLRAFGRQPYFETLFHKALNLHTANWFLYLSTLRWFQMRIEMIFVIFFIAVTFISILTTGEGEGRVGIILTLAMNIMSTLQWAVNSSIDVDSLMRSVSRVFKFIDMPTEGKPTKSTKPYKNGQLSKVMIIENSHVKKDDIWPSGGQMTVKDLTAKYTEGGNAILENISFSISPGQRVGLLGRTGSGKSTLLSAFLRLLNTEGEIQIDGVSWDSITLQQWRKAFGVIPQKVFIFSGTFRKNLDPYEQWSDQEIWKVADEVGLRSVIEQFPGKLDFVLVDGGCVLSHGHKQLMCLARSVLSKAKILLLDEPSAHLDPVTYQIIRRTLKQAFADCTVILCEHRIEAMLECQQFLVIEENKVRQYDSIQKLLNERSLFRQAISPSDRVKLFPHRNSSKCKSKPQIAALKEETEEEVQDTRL
Format: cell-based
Text: CFTR activity can be quantified by electrophysiology methods, using the whole-cell configuration of the patch clamp technique (Hamill O, Marty A, Neher E, Sakmann B and Sigworth F. ‘Improved patch-clamp techniques for high resolution current recording from cells and cell-free membrane patches.’ Pflugers Archive 1981 391: 85-100). This assay directly measures the currents associated with chloride flow through CFTR channels whilst either maintaining or adjusting the transmembrane voltage. This assay can use either single glass micropipettes or parallel planar arrays to measure CFTR activity from native or recombinant cell systems. Currents measured using parallel planar arrays can be quantified using an appropriately equipped instrument such as the IonWorks Quattro (Molecular Devices Corporation, Sunnyvale, Calif.). The Quattro system can measure CFTR currents from either a single cell per recording well (HT configuration) or alternatively from a population of 64 cells per well (Population Patch Clamp PPC) (Finkel A, Wittel A, Yang N, Handran S, Hughes J, Costantin J. ‘Population patch clamp improves data consistency and success rates in the measurement of ionic currents.’ J Biomol Screen. 2006 August; 11 (5):488-96).
Chinese hamster ovary (CHO) cells stably expressing WT-CFTR channels were used for the IonWorks Quattro experiments. Cells were maintained at 37° C. in 5% v/v CO2 at 100% humidity in MEM alpha medium supplemented with 10% (v/v) FCS, 100 U/mL Penicillin/Streptomycin, and 100 μg/L methotrexate. For experiments, cells were grown in 225 cm^2 tissue culture flasks until almost confluent. Cells were removed from the flask using trypsin-EDTA and resuspended in extracellular recording solution for immediate experimentation.
Cells, at a density of 1.5-2 million per mL, were placed on the Quattro system, added to the planar patch plate and seals allowed to establish for 5-10 mins. After assessing seal resistances (typically >50 MΩ), whole-cell access was obtained by perforation with 100 μg/mL amphotericin B. Baseline currents were measured by a pre-compound scan obtained by application of a voltage ramp from −100 to +100 mV. CFTR was activated by the addition of 10 μM forskolin to each of the 384 wells of the patch plate. After 5 min incubation the post-compound 1 currents were measured, again by application of a voltage ramp from −100 to +100 mV. Test compounds, diluted from 10 mM stocks in DMSO in extracellular solution were then added to the patch plate and were incubated for a further 10 min. The post-compound 2 currents were measured by the application of the same voltage ramp from −100 to +100 mV. The inhibition of CFTR was determined from the difference in current between the forskolin addition (post-compound 1) and the test compound (post-compound 2). This was determined at both −100 mV and +100 mV which represents the inward and outward current respectively.
Extracellular solution (ECS): 145 mM NaCl, 4 mM CsCl, 5 mM D-glucose, 10 mM TES, 1 mM CaCl2, 1 mM MgCl2, pH 7.4 NaOH
Intracellular solution (ICS): 113 mM L-Aspartic acid, 113 mM CsOH, 27 mM CsCl, 1 mM NaCl, 1 mM MgCl2, 1 mM EGTA, 10 mM TES. pH 7.2 with CsOH. Filter sterilized before use.
In the case of CN(C)C[C@@H]1Cn2c(-c3ccccc3)c3c(=O)n(C)c(=O)n(C)c3c2[C@@H](c2ccc(Cl)o2)S1 (single isomer, unassigned) [Example 14a, 10-(5-chlorofuran-2-yl)-8-((dimethylamino)methyl)-1,3-dimethyl-5-phenyl-7,8-dihydro-1H-pyrimido[4′,5′:3,4]pyrrolo[2,1-c][1,4]thiazine-2,4(3H,10H)-dione], the IC50 is reported as 0.31 µM. Cn1c(=O)c2c(-c3nc(CO)cs3)n3c(c2n(C)c1=O)[C@H](c1ccc(Cl)o1)SCC3 (single isomer, unassigned) [Example 15, 10-(5-Chlorofuran-2-yl)-5-(4-(hydroxymethyl)thiazol-2-yl)-1,3-dimethyl-7,8-dihydro-1H-pyrimido[4′,5′:3,4]pyrrolo[2,1-c][1,4]thiazine-2,4(3H,10H)-dione] was tested, and the IC50 was 0.1 µM. With Cn1ccc(-c2c3c(=O)n(C)c(=O)n(C)c3c3n2CCSC3c2ccc(Cl)o2)n1 (single isomer, unassigned) [Example 15.11, 10-(5-Chlorofuran-2-yl)-1,3-dimethyl-5-(1-methyl-1H-pyrazol-3-yl)-7,8-dihydro-1H-pyrimido[4′,5′:3,4]pyrrolo[2,1-c][1,4]thiazine-2,4(3H,10H)-dione] the IC50 was 0.13 µM. Work on CCOc1cccc(-c2c3c(=O)n(C)c(=O)n(C)c3c3n2CCSC3c2ccc(Cl)o2)c1 (single isomer, unassigned) [Example 15.12, 10-(5-Chlorofuran-2-yl)-5-(3-ethoxyphenyl)-1,3-dimethyl-7,8-dihydro-1H-pyrimido[4′,5′:3,4]pyrrolo[2,1-c][1,4]thiazine-2,4(3H,10H)-dione] yielded an IC50 of 9.27 µM. In the case of COc1cccc(-c2c3c(=O)n(C)c(=O)n(C)c3c3n2CCSC3c2ccc(Cl)o2)c1 (single isomer, unassigned) [Example 15.13, 10-(5-Chlorofuran-2-yl)-5-(3-methoxyphenyl)-1,3-dimethyl-7,8-dihydro-1H-pyrimido[4′,5′:3,4]pyrrolo[2,1-c][1,4]thiazine-2,4(3H,10H)-dione], the IC50 is reported as 0.62 µM. Cc1csc(-c2c3c(=O)n(C)c(=O)n(C)c3c3n2C[C@H](CO)S[C@H]3c2ccc(Cl)o2)n1 (single isomer, unassigned) [Example 17, 10-(5-chlorofuran-2-yl)-8-(hydroxymethyl)-1,3-dimethyl-5-(4-methylthiazol-2-yl)-7,8-dihydro-1H-pyrimido[4′,5′:3,4]pyrrolo[2,1-c][1,4]thiazine-2,4(3H,10H)-dione] was tested, and the IC50 was 0.1 µM. Cn1ccc(-c2c3c(=O)n(C)c(=O)n(C)c3c3n2C[C@H](CO)S[C@H]3c2ccc(Cl)o2)n1 (single isomer, unassigned) [Example 17.1, 10-(5-Chlorofuran-2-yl)-8-(hydroxymethyl)-1,3-dimethyl-5-(1-methyl-1H-pyrazol-3-yl)-7,8-dihydro-1H-pyrimido[4′,5′:3,4]pyrrolo[2,1-c][1,4]thiazine-2,4(3H,10H)-dione] showed an IC50 of 0.23 µM. Cc1nc(-c2c3c(=O)n(C)c(=O)n(C)c3c3n2C[C@H](CO)S[C@H]3c2ccc(Cl)o2)cs1 (single isomer, unassigned) [Example 17.2, 10-(5-Chlorofuran-2-yl)-8-(hydroxymethyl)-1,3-dimethyl-5-(2-methylthiazol-4-yl)-7,8-dihydro-1H-pyrimido[4′,5′:3,4]pyrrolo[2,1-c][1,4]thiazine-2,4(3H,10H)-dione] gave an IC50 of 0.24 µM. With Cc1csc(-c2c3c(=O)n(C)c(=O)n(C)c3c3n2C[C@H](CN)S[C@H]3c2ccc(Cl)o2)n1 (single isomer, unassigned) [Example 19, 8-(aminomethyl)-10-(5-chlorofuran-2-yl)-1,3-dimethyl-5-(4-methylthiazol-2-yl)-7,8-dihydro-1H-pyrimido[4′,5′:3,4]pyrrolo[2,1-c][1,4]thiazine-2,4(3H,10H)-dione] the IC50 was 5.38 µM. Molecule Cn1c(=O)c2c(-c3cccc(C#N)c3)n3c(c2n(C)c1=O)C(c1nc(Cl)cs1)CC3 (single isomer, unassigned) [Example 20a, 3-(9-(4-chlorothiazol-2-yl)-1,3-dimethyl-2,4-dioxo-2,3,4,7,8,9-hexahydro-1H-pyrimido[4,5-a]pyrrolizin-5-yl)benzonitrile] has an IC50 of 0.27 µM.
